Laboratory results from patent US20040101571A1, “Use of hydrogen peroxide for the treatment of warts” (priority 2002, published 2004).

Test system: warts (human papillomavirus-induced tumors)
Test: Topical treatment of warts in human patients (clinical case examples)
Type: in vivo
Excerpt: The method of the present invention neither destroys healthy, uninfected tissue nor results in any local or systemic side effects, scarring, disfigurement or discomfort to the human treated. Furthermore, the use of the present method results in the destruction of latent viral DNA found in the tumor and the surrounding tissues so that instances of incomplete resolution and are prevented. […] In accordance with the method according to this invention, “regular use of the hydrogen peroxide” is meant to mean application of the hydrogen peroxide at least once a day to the body surface containing the wart(s). A further embodiment of the method of this invention comprises placing a small amount of gel residue or gel on the tumor to be treated. It has been determined through clinical evaluation that once the method of this invention is initiated, the warts begin to shrink, no matter what size, and will totally disappear after a period of four to six weeks of treatment, or less if the gel is applied more often than once daily at bedtime.
A person presented with warts on the right foot of some two months duration; measuring about 3 mm in diameter, with raised dark spots on the surface. Hydrogen peroxide gel was applied once daily at bedtime over the wart with a Q-tip and left open to air dry. […]

OO [hydrogen peroxide]
period of treatment until warts totally disappear (clinical evaluation, applied once daily at bedtime, warts of any size begin to shrink, less if applied more often): four to six | overall clinical experience in treatment and elimination of warts (clinical experience to date): complete eradication of the warts with no recurrence
